Experimental data from patent US20070141276A1, “Novel 14 and 15 membered ring compounds” (priority 2003, published 2007).
Where a name gives a salt, the structure may show the parent alone.

How the values were obtained:
Experiment in all cases: MIC, broth dilution method in microtitre
[1] = test system: M. catarrhalis ATCC 23246; assay type: cell-based, Moraxella catarrhalis
Protocol: (§1) Using a standard broth dilution method in microtitre, compounds were tested for antibacterial activity. The compounds in the above examples gave minimum inhibitory concentrations (MICs) less than 1 microgram per millilitre against erythromycin-sensitive and erythromycin-resistant strains of Streptococcus pneumoniae and Streptococcus pyogenes.
(§2) In addiffon, the MIC (μg/mL) of test compounds against various organisms was determined including:
(§3) S. aureus Smith ATCC 13709, S. pneumonlae SP030, S. pyogenes 3565, E. faecalis ATCC 29212, H. influenzae ATCC 49247, M. catarrhalis ATCC 23246.

H. influenzae ATCC 49247 = assay type: cell-based, Haemophilus influenzae
Protocol: as §1, §2, §3

[2] = test system: erythromycin-resistant strains of Streptococcus pyogenes; assay type: cell-based
Protocol: as §1

[3] = test system: erythromycin-resistant strains of Streptococcus pneumoniae; assay type: cell-based
Protocol: as §1

S. pneumoniae SP030 = assay type: cell-based; details: Streptococcus pneumoniae
Protocol: as §1, §2, §3

[4] = test system: S. aureus Smith ATCC 13709; assay type: cell-based; details: Staphylococcus aureus, ATCC13709
Protocol: as §1, §2, §3

S. pyogenes 3565 = assay type: cell-based; details: Streptococcus pyogenes
Protocol: as §1, §2, §3

E. faecalis ATCC 29212 = assay type: cell-based; details: Enterococcus faecalis, ATCC29212
Protocol: as §1, §2, §3

Question: With “4″-O-3-[2-(3-Carboxy-7-chloro-1-cyclopropyl-4-oxo-1,4-dihydro-quinolin-6-yloxy)-ethoxy]-propylcarbamoyl}-azithromycin (A) and 4″-O-{3-[2-(3-Carboxy-1-cyclopropyl-4-oxo-1,4-dihydro-quinolin-6-yloxy)-ethoxy]-propylcarbamoyl)-azithromycin (B) [Example 1]” as the compound, how does the MIC [1] read?
Answer: ≤ 2 µg/mL

Question: And the MIC (H. influenzae ATCC 49247)?
Answer: ≤ 2 µg/mL

Question: What does the source list for `CC[C@H]1OC(=O)[C@H](C)[C@@H](O[C@H]2C[C@@](C)(OC)[C@@H](OC(=O)NCCCOCCOc3ccc4c(c3)c(=O)c(C(=O)O)cn4C3CC3)[C@H](C)O2)[C@H](C)[C@@H](O[C@@H]2O[C@H](C)C[C@H](N(C)C)[C@H]2O)[C@](C)(O)C[C@@H](C)CN(C)[C@H](C)[C@@H](O)[C@]1(C)O` [Example 2]?
Answer: MIC [2]: ≤ 0.25 µg/mL; MIC [3]: ≤ 0.25 µg/mL; MIC (S. pneumoniae SP030): ≤ 1 µg/mL; MIC [4]: ≤ 1 µg/mL; MIC (S. pyogenes 3565): ≤ 1 µg/mL; MIC (E. faecalis ATCC 29212): ≤ 1 µg/mL

Question: For `CC[C@H]1OC(=O)[C@H](C)[C@@H](O[C@H]2C[C@@](C)(OC)[C@@H](OC(=O)NCCNCCOc3ccc4c(c3)c(=O)c(C(=O)O)cn4CC)[C@H](C)O2)[C@H](C)[C@@H](O[C@@H]2O[C@H](C)CC(N(C)C)[C@H]2O)[C@](C)(OC)C[C@@H](C)C(=O)[C@H](C)[C@@H](O)[C@]1(C)O` (stereo partly drawn) [Example 3, 4″-O-{2-[2-(3-Carboxy-1-ethyl-4-oxo-1,4-dihydro-quinolin-6-yloxy)-ethylamino]-ethylcarbamoyl}-6-O-methyl-erythromycin A monoformate salt], which MIC (S. pneumoniae SP030) is on record?
Answer: ≤ 1 µg/mL

Question: What about the MIC [4] of the same compound?
Answer: ≤ 1 µg/mL

Question: And the MIC (S. pyogenes 3565)?
Answer: ≤ 1 µg/mL

Question: What about the MIC (E. faecalis ATCC 29212) of the same compound?
Answer: ≤ 1 µg/mL
